Read-outs that look alike come from different tables or passages of the source.
Experiments:
Assay in all cases: receptor binding assay (NIMH PDSP)
[1] = target: T1, 5-HT5A (Homo sapiens, UniProt P47898)
T1 construct: gene HTR5A; cloned receptor, NIMH PDSP panel
Text: receptor binding assay (NIMH PDSP) on 5-HT5A

[2] = target: T2, 5-HT1B (Homo sapiens, UniProt P28222)
T2 construct: gene HTR1B; cloned receptor, NIMH PDSP panel
Text: receptor binding assay (NIMH PDSP) on 5-HT1B

[3] = target: T3, 5-HT7 (Homo sapiens, UniProt P34969)
T3 construct: gene HTR7; cloned receptor, NIMH PDSP panel
T3 sequence (P34969 whole entry): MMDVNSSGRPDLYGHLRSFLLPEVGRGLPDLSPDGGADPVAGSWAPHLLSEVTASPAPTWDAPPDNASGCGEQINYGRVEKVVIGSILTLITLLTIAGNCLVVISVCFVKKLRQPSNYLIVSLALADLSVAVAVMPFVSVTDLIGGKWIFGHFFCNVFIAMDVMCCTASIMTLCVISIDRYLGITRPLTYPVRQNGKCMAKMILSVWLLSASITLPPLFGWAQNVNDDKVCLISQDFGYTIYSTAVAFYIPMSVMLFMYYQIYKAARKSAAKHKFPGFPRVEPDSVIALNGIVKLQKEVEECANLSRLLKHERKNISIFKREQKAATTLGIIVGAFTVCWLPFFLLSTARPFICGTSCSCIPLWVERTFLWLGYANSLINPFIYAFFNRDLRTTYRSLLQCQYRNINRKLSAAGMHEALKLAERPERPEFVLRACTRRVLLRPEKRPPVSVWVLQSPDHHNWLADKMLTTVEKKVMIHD
Text: receptor binding assay (NIMH PDSP) on 5-HT7

[4] = target: T4, 5-HT1D (Homo sapiens, UniProt P28221)
T4 construct: gene HTR1D; cloned receptor, NIMH PDSP panel
T4 sequence (P28221 whole entry): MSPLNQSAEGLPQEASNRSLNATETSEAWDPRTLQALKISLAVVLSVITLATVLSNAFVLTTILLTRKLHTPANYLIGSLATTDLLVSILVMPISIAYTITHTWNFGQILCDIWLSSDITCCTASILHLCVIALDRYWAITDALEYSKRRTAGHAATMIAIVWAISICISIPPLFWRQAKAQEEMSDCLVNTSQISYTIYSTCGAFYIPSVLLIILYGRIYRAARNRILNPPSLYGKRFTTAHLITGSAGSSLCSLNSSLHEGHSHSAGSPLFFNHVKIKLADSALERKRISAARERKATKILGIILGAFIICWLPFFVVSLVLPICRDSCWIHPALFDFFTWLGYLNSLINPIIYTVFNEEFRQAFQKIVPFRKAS
Text: receptor binding assay (NIMH PDSP) on 5-HT1D

[5] = target: T5, 5-HT1E (Homo sapiens, UniProt P28566)
T5 construct: gene HTR1E; cloned receptor, NIMH PDSP panel
T5 sequence (P28566 whole entry): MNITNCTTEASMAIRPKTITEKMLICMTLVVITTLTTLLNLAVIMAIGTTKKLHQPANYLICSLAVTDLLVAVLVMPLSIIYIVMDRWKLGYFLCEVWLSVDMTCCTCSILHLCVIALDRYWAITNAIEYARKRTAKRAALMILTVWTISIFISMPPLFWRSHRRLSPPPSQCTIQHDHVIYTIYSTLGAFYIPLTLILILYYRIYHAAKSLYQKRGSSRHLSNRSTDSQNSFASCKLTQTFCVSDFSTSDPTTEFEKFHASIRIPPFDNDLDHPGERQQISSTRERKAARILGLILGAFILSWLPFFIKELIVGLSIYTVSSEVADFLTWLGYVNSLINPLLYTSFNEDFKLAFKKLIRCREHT
Text: receptor binding assay (NIMH PDSP) on 5-HT1E

[6] = target: T6, 5-HT6 (Homo sapiens, UniProt P50406)
T6 construct: gene HTR6; cloned receptor, NIMH PDSP panel
T6 sequence (P50406 whole entry): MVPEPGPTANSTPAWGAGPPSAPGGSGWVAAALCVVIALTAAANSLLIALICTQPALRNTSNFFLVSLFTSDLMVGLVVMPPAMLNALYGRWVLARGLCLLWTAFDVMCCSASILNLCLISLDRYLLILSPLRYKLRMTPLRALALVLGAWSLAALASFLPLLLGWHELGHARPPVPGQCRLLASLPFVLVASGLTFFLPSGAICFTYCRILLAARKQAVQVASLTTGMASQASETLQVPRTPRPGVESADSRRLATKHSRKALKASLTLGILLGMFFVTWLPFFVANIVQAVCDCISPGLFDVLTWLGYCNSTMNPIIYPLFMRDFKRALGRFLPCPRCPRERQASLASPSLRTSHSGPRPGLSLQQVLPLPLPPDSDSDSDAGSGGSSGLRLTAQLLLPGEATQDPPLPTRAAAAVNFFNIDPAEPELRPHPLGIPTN
Text: receptor binding assay (NIMH PDSP) on 5-HT6

[7] = target: T7, 5-HT1A (Homo sapiens, UniProt P08908)
T7 construct: gene HTR1A; cloned receptor, NIMH PDSP panel
T7 sequence (P08908 1-422): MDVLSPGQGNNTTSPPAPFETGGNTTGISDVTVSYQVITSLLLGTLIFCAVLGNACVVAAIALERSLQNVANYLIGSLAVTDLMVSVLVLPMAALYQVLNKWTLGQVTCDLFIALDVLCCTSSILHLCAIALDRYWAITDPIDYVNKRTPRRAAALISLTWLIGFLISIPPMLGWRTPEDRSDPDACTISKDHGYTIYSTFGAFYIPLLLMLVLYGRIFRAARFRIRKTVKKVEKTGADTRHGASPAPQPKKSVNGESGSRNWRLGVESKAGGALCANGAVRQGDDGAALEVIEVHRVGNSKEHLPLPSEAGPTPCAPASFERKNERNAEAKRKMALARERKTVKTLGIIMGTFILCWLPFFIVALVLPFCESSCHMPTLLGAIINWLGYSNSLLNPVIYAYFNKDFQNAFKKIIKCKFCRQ
Text: receptor binding assay (NIMH PDSP) on 5-HT1A

[8] = target: T8, 5-HT2B (Homo sapiens, UniProt P41595)
T8 construct: gene HTR2B; cloned receptor, NIMH PDSP panel
T8 sequence (P41595 whole entry): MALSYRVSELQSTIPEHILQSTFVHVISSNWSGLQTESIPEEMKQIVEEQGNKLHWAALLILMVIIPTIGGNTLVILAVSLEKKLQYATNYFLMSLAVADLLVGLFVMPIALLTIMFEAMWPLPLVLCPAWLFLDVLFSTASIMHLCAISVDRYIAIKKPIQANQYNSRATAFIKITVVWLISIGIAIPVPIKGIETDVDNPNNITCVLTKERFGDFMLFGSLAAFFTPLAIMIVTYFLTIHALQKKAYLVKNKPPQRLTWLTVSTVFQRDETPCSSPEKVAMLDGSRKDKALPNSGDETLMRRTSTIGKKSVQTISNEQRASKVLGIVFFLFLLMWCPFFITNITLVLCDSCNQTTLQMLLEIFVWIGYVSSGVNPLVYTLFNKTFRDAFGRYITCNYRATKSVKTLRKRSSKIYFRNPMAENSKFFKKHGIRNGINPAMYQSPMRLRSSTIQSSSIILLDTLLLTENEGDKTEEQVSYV

T2 sequence (P28222 whole entry): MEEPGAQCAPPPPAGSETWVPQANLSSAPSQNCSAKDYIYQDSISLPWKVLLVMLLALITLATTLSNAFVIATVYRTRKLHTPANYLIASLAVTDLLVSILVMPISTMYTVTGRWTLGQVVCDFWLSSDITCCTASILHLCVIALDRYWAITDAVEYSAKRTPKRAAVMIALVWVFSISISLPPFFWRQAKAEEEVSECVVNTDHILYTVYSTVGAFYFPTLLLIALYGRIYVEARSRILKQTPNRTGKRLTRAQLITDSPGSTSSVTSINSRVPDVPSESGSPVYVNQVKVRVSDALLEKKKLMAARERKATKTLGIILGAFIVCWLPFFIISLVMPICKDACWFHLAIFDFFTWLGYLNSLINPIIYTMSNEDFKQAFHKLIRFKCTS
T1 sequence (P47898 whole entry): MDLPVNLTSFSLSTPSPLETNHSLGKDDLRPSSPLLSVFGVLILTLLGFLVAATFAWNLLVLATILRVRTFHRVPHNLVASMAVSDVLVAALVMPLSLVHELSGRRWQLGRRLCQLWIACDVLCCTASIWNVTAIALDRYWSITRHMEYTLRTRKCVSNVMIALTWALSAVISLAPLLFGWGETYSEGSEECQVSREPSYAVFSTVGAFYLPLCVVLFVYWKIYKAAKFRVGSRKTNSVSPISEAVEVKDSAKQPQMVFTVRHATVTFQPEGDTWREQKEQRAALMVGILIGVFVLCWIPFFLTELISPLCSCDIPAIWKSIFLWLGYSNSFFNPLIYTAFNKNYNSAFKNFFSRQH

Row | Molecule | Ki [1] [nM] | Ki [2] [nM] | Ki [3] [nM] | Ki [4] [nM] | Ki [5] [nM] | Ki [6] [nM] | Ki [7] [nM] | Ki [8] [nM] | Ki ([7]; read-out: Compound 2a Ki) [nM]
1 | CN(C)CCc1c[nH]c2ccccc12 [2a, 2-(1H-indol-3-yl)-N,N-dimethylethanamine] | > 10000 | 66 ± 9 | 77 ± 16 | 29.3 ± 3.7 | > 10000 | 189 ± 32.5 | – | – | –
2 | CN(C)CCc1c[nH]c2ccc(I)cc12 [2e, 2-(5-iodo-1H-indol-3-yl)-N,N-dimethylethanamine] | 1250 | 43 ± 5 | 116 ± 13 | 8.5 ± 1.38 | 310 ± 33 | 198 ± 20 | 130 ± 16 | 98 ± 4 | –
3 | 2-(1H-indol-3-yl)-N,N-dimethylethanamine [2a] | – | – | – | – | – | – | – | – | 110 ± 17

— PMC5577603, “Marine Inspired 2-(5-Halo-1H-indol-3-yl)-N,N-dimethylethanamines as Modulators of Serotonin Receptors: An Example Illustrating the Power of Bromine as Part of the Uniquely Marine Chemical Space” (Marine Drugs, 2017)
